Reference: patent US10653698B2, “Methods of improving myocardial performance in Fontan patients using udenafil compositions” (priority 2014, dated 2020)

Test system: adolescents with single ventricle physiology after Fontan palliation
Experiment: Vascular function testing (EndoPAT pulse amplitude tonometry, lnRHI and other EndoPAT indices)
Format: in vivo, human
Settings: for Natural Log of Reactive Hyperemia Index, Baseline measurement: day 1; for Natural Log of Reactive Hyperemia Index, Follow-up measurement: post-medication, day 5
Excerpt: Pulse amplitude tonometry (PAT), a FDA-approved method for assessing vascular function, is increasingly being used as an alternative measure of endothelium-dependent dilation in response to reactive hyperemia and flow-mediated dilation (FMD). The PAT device records digital pulse wave amplitude (PWA) using fingertip plethysmography. PWA can be measured continuously during three phases: a quiet baseline period, 5-min forearm occlusion, and reactive hyperemia following cuff release. Unlike FMD, PAT testing is not dependent upon a highly skilled technician and post-test analysis is largely automated. Most importantly, at least one longitudinal study has shown that PAT measures of endothelial function predict CVD events over a 6-year follow-up period. These significant advantages may make PAT testing suitable for clinical practice if prognostic significance and reliability can be verified.
The primary outcome of vascular function was determined according to an endothelial pulse amplitude tonometry (PAT) index as determined by the EndoPAT® device (Itamar Medical, Caesarea, Israel).
Table 16 summarizes the results for the key outcome from the vascular function testing—natural log of Reactive Hyperemia Index (lnRHI) by treatment group. Out of the 30 subjects enrolled in the treatment arms of the trial, 27 subjects had paired measurements with an acceptable quality (with QC score equal to 3 (the best) or 2). The structure of the table is similar to the one for exercise variables.
Table 17 reports change scores only for secondary EndoPAT outcomes (RHI, Framingham RHI etc; top panel) and other EndoPAT indices.

CCCOc1ccc(S(=O)(=O)NCCC2CCCN2C)cc1-c1nc2c(CCC)nn(C)c2c(=O)[nH]1 (stereo not shown) [udenafil]
Natural Log of Reactive Hyperemia Index, Difference, FU − BL (37.5 mg daily): 0.03 ± 0.47 | AUC2max_o: Area under the curve to Max-Occlusion (ratio to baseline), FU − BL (37.5 mg daily, N 6): −0.23 ± 2.74 | AUC2max_oc: Area under the curve to Max-Occlusion/Control, FU − BL (37.5 mg daily, N 6): −0.93 ± 4.37 | AUCall_o: Area under the curve all-Occlusion (ratio to baseline), FU − BL (37.5 mg daily, N 6): −0.01 ± 2.73 | AUCall_oc: Area under the curve all-Occlusion/Control, FU − BL (37.5 mg daily, N 6): −1.34 ± 6.42 | Avg2Max_o: average upto max-Occlusion (ratio to baseline), FU − BL (37.5 mg daily, N 6): −0.12 ± 0.28 | Avg2Max_oc: average up to max-Occlusion/Control, FU − BL (37.5 mg daily, N 6): −0.35 ± 1.01 | Avgall_o: average all-Occlusion (ratio to baseline), FU − BL (37.5 mg daily, N 6): 0.02 ± 0.27 | Avgall_oc: average all -Occlusion/Control, FU − BL (37.5 mg daily, N 6): −0.10 ± 0.66 | Framingham RHI, FU − BL (37.5 mg daily, N 6): −0.00 ± 0.58 | Reactive Hyperemia Index, FU − BL (37.5 mg daily, N 6): 0.03 ± 0.84 | Natural Log of Reactive Hyperemia Index, Baseline measurement (37.5 mg daily): 0.48 ± 0.31 | Natural Log of Reactive Hyperemia Index, Follow-up measurement (37.5 mg daily): 0.51 ± 0.26 | Natural Log of Reactive Hyperemia Index, Difference, FU − BL (37.5 mg twice daily): −0.07 ± 0.17 | AUC2max_o: Area under the curve to Max-Occlusion (ratio to baseline), FU − BL (37.5 mg twice daily, N 6): 0.09 ± 1.45 | AUC2max_oc: Area under the curve to Max-Occlusion/Control, FU − BL (37.5 mg twice daily, N 6): −1.19 ± 1.84 | AUCall_o: Area under the curve all-Occlusion (ratio to baseline), FU − BL (37.5 mg twice daily, N 6): −0.69 ± 2.17 | AUCall_oc: Area under the curve all-Occlusion/Control, FU − BL (37.5 mg twice daily, N 6): −1.19 ± 2.00 | Avg2Max_o: average upto max-Occlusion (ratio to baseline), FU − BL (37.5 mg twice daily, N 6): 0.15 ± 0.19 | Avg2Max_oc: average up to max-Occlusion/Control, FU − BL (37.5 mg twice daily, N 6): −0.33 ± 0.26 | Avgall_o: average all-Occlusion (ratio to baseline), FU − BL (37.5 mg twice daily, N 6): −0.08 ± 0.24 | Avgall_oc: average all -Occlusion/Control, FU − BL (37.5 mg twice daily, N 6): −0.13 ± 0.22 | Framingham RHI, FU − BL (37.5 mg twice daily, N 6): −0.17 ± 0.19 | Reactive Hyperemia Index, FU − BL (37.5 mg twice daily, N 6): −0.12 ± 0.30 | Natural Log of Reactive Hyperemia Index, Baseline measurement (37.5 mg twice daily): 0.60 ± 0.30 | Natural Log of Reactive Hyperemia Index, Follow-up measurement (37.5 mg twice daily): 0.53 ± 0.29 | Natural Log of Reactive Hyperemia Index, Difference, FU − BL (87.5 mg daily): 0.07 ± 0.22 | AUC2max_o: Area under the curve to Max-Occlusion (ratio to baseline), FU − BL (87.5 mg daily, N 5): −1.26 ± 4.89 | AUC2max_oc: Area under the curve to Max-Occlusion/Control, FU − BL (87.5 mg daily, N 5): 3.03 ± 2.49 | AUCall_o: Area under the curve all-Occlusion (ratio to baseline), FU − BL (87.5 mg daily, N 5): 1.66 ± 5.96 | AUCall_oc: Area under the curve all-Occlusion/Control, FU − BL (87.5 mg daily, N 5): 1.88 ± 3.25 | Avg2Max_o: average upto max-Occlusion (ratio to baseline), FU − BL (87.5 mg daily, N 5): 0.10 ± 0.69 | Avg2Max_oc: average up to max-Occlusion/Control, FU − BL (87.5 mg daily, N 5): 0.17 ± 0.43 | Avgall_o: average all-Occlusion (ratio to baseline), FU − BL (87.5 mg daily, N 5): 0.14 ± 0.67 | Avgall_oc: average all -Occlusion/Control, FU − BL (87.5 mg daily, N 5): 0.16 ± 0.36 | Framingham RHI, FU − BL (87.5 mg daily, N 5): 0.04 ± 0.36 | Reactive Hyperemia Index, FU − BL (87.5 mg daily, N 5): 0.12 ± 0.34 | Natural Log of Reactive Hyperemia Index, Baseline measurement (87.5 mg daily): 0.41 ± 0.25 | Natural Log of Reactive Hyperemia Index, Follow-up measurement (87.5 mg daily): 0.45 ± 0.31 | Natural Log of Reactive Hyperemia Index, Difference, FU − BL (87.5 mg twice daily): −0.03 ± 0.20 | AUC2max_o: Area under the curve to Max-Occlusion (ratio to baseline), FU − BL (87.5 mg twice daily, N 4): −0.51 ± 1.64 | AUC2max_oc: Area under the curve to Max-Occlusion/Control, FU − BL (87.5 mg twice daily, N 4): 0.16 ± 1.08 | AUCall_o: Area under the curve all-Occlusion (ratio to baseline), FU − BL (87.5 mg twice daily, N 4): 0.60 ± 2.95 | AUCall_oc: Area under the curve all-Occlusion/Control, FU − BL (87.5 mg twice daily, N 4): 0.17 ± 4.30 | Avg2Max_o: average upto max-Occlusion (ratio to baseline), FU − BL (87.5 mg twice daily, N 4): 0.03 ± 0.36 | Avg2Max_oc: average up to max-Occlusion/Control, FU − BL (87.5 mg twice daily, N 4): 0.24 ± 0.23 | Avgall_o: average all-Occlusion (ratio to baseline), FU − BL (87.5 mg twice daily, N 4): 0.09 ± 0.33 | Avgall_oc: average all -Occlusion/Control, FU − BL (87.5 mg twice daily, N 4): 0.05 ± 0.45 | Framingham RHI, FU − BL (87.5 mg twice daily, N 4): 0.00 ± 0.20 | Reactive Hyperemia Index, FU − BL (87.5 mg twice daily, N 4): 0.01 ± 0.38 | Natural Log of Reactive Hyperemia Index, Baseline measurement (87.5 mg twice daily): 0.49 ± 0.12 | Natural Log of Reactive Hyperemia Index, Follow-up measurement (87.5 mg twice daily): 0.40 ± 0.29 | Natural Log of Reactive Hyperemia Index, Difference, FU − BL (125 mg daily): −0.10 ± 0.38 | AUC2max_o: Area under the curve to Max-Occlusion (ratio to baseline), FU − BL (125 mg daily, N 6): 0.37 ± 2.71 | AUC2max_oc: Area under the curve to Max-Occlusion/Control, FU − BL (125 mg daily, N 6): 1.80 ± 1.18 | AUCall_o: Area under the curve all-Occlusion (ratio to baseline), FU − BL (125 mg daily, N 6): −0.28 ± 3.98 | AUCall_oc: Area under the curve all-Occlusion/Control, FU − BL (125 mg daily, N 6): −1.84 ± 7.21 | Avg2Max_o: average upto max-Occlusion (ratio to baseline), FU − BL (125 mg daily, N 6): 0.07 ± 0.86 | Avg2Max_oc: average up to max-Occlusion/Control, FU − BL (125 mg daily, N 6): −0.32 ± 1.28 | Avgall_o: average all-Occlusion (ratio to baseline), FU − BL (125 mg daily, N 6): −0.03 ± 0.49 | Avgall_oc: average all -Occlusion/Control, FU − BL (125 mg daily, N 6): −0.20 ± 0.84 | Framingham RHI, FU − BL (125 mg daily, N 6): −0.13 ± 0.51 | Reactive Hyperemia Index, FU − BL (125 mg daily, N 6): −0.21 ± 0.78 | Natural Log of Reactive Hyperemia Index, Baseline measurement (125 mg daily): 0.63 ± 0.37 | Natural Log of Reactive Hyperemia Index, Follow-up measurement (125 mg daily): 0.52 ± 0.34 | Natural Log of Reactive Hyperemia Index, Difference, FU − BL (All subjects (treatment arms)): −0.02 ± 0.30 | Natural Log of Reactive Hyperemia Index, Baseline measurement (All subjects (treatment arms)): 0.52 ± 0.28 | Natural Log of Reactive Hyperemia Index, Follow-up measurement (All subjects (treatment arms)): 0.49 ± 0.28 | AUC2max_o: Area under the curve to Max-Occlusion (ratio to baseline), FU − BL (All subjects, N 27): −0.26 ± 2.75 | AUC2max_oc: Area under the curve to Max-Occlusion/Control, FU − BL (All subjects, N 27): 0.51 ± 2.91 | AUCall_o: Area under the curve all-Occlusion (ratio to baseline), FU − BL (All subjects, N 27): 0.18 ± 3.54 | AUCall_oc: Area under the curve all-Occlusion/Control, FU − BL (All subjects, N 27): −0.60 ± 4.93 | Avg2Max_o: average upto max-Occlusion (ratio to baseline), FU − BL (All subjects, N 27): 0.04 ± 0.51 | Avg2Max_oc: average up to max-Occlusion/Control, FU − BL (All subjects, N 27): −0.16 ± 0.79 | Avgall_o: average all-Occlusion (ratio to baseline), FU − BL (All subjects, N 27): 0.02 ± 0.40 | Avgall_oc: average all -Occlusion/Control, FU − BL (All subjects, N 27): −0.06 ± 0.54 | Framingham RHI, FU − BL (All subjects, N 27): −0.06 ± 0.39 | Reactive Hyperemia Index, FU − BL (All subjects, N 27): −0.04 ± 0.56 | Improvement in natural log of Reactive Hyperemia Index (some patients, baseline to day 5): ≤ 9.75%
